The results in this text go back to patent US8765433B2, “Alcohol dehydrogenases (ADH) useful for fermentive production of lower alkyl alcohols” (priority 2009, dated 2014).

SMILES strings stand for the structures.

For this assay, the system named is Achromobacter xylosoxidans SadB (SadB), SEQ ID NO: 26. The assay can be described thus: isobutyraldehyde reduction kinetics (A340, initial rates). Format: biochemical. The note with it: read-out: KM (NADH); cofactor. An excerpt:
This example describes preparation of ADH-gene constructs for over-expression/purification and measurement of enzyme activities using a time-course assay. Horse-liver ADH (HLADH; A-6128) was purchased from Sigma. Achromobacter xylosoxidans SadB (SadB), Saccharomyces cerevisiae ADH6 (ScADH6) and ADH7 (ScADH7), Entamoeba histolytica ADH1 (EhADH1), Bos Taurus Aldehyde Reductase (BtARD), Beijerinckia indica subsp. Indica ATCC 9039 (BiADH), Clostridium beijerinckii ADH (CbADH), Rana perezi ADH8 (RpADH8), Rattus norvegicus ADH1 (RnADH1), Thermus sp. ATN1 ADH (TADH), Phenylobacterium zucineum HLK1 ADH (PzADH), Methylocella silvestris BL2 ADH (MsADH), Acinetobacter baumannii AYE ADH (AbADH), Geobacillus sp. WCH70 ADH (GbADH), Vanderwaltozyma polyspora DSM 70294 ADH (VpADH), Mucor circinelloides ADH (McADH), and Rhodococcus erythropolis PR4ADH (ReADH) were the candidates for which subclones were prepared for protein expression and purification.
As a routine practice, the crude extracts and purified proteins were assayed for butanol oxidation activity, in order to ensure that the recombinant proteins were active throughout the purification process. […] Alcohol oxidation activities were carried out in 50 mM sodium phosphate buffer at pH 8.8 and aldehyde reduction reactions were assayed in 190 mM potassium phosphate buffer at pH 7.0. Depending on the nature of reaction being carried out, the enzyme and cofactor stocks were diluted in the reaction buffers at the respective pHs. Either buffer or cell extract prepared from the proprietary E. coli strain (with no ADH plasmid) was used as the negative control for assays with purified protein and cell-free extracts, respectively.
Kinetic constants of the ADH enzymes were calculated and compared to identify those candidate ADH enzymes with the most desirable properties for the conversion of isobutyraldehyde to isobutanol in the last step of the engineered pathway for isobutanol production. The assays for determining the kinetic constants were carried out using initial rates from the assays described above. […] The concentration of a given enzyme was such that it was conducive for the measurement of initial velocities over a 1-min time course. For each enzyme, Michaelis-Menten plots were generated with a broad range of substrate concentrations. Rough estimates of KM were obtained, based on which the assays were redesigned so as to use substrate concentrations in the range 0.5 to 10 times the KM value, to be able to obtain the appropriate kinetic constants. […] Reactions with isobutanol substrate were performed at 30° C. in 50 mM Sodium phosphate buffer, pH 8.8, containing 7.5 mM NAD. The Enzyme kinetics module (Version 1.3) of SigmaPlot 11 (Systat Software, Inc.) was used to fit data to Michaelis-Menten equations and calculate the kinetic constants. The kcat/KM is derived from the individual numbers of kcat and KM and not an experimentally determined value.
For those enzymes marked with an asterisk in Table 7, at least 3 assays were performed with separate preparations of the enzyme. All other numbers are values from either one assay or are averages from 2 assays performed with the same enzyme sample.

One may read the Km as the substrate concentration at which the rate is half of its maximum.

Regarding `NC(=O)C1=CN([C@@H]2O[C@H](COP(=O)(O)OP(=O)(O)OC[C@H]3O[C@@H](n4cnc5c(N)ncnc54)[C@H](O)[C@@H]3O)[C@@H](O)[C@H]2O)C=CC1` [NADH, reduced nicotinamide adenine dinucleotide], the Km was found to be 20 µM.
